Results on 24 molecules are retold here after patent US12440484B2, “1,3,4-oxadiazole homophthalimide derivative compounds as histone deacetylase 6 inhibitor, and the pharmaceutical composition comprising the same” (Chong Kun Dang Pharmaceutical Corp., priority 2019, dated 2025).

One assay has as its target HDAC6 human recombinant (Homo sapiens (Human), UniProt Q9UBN7). The assay can be described thus: HDAC enzyme activity inhibition (in vitro), HDAC6 assay. The conditions noted are these: samples at 0.1, 1, 10, 100 and 1000 nM; 37° C. 60 minutes; fluorescence Ex 390, Em 460. The format is biochemical.
For another assay, the target named is HDAC1 (Homo sapiens (Human), UniProt Q13547). The assay can be described thus: HDAC enzyme activity inhibition (in vitro), HDAC1 Fluorimetric Drug Discovery Assay Kit. It counts as biochemical. The note with it: samples at 100, 1000 and 10000 nM; 37° C. 60 minutes; fluorescence Ex 390, Em 460.
Sequence of HDAC1 (Q13547 whole entry): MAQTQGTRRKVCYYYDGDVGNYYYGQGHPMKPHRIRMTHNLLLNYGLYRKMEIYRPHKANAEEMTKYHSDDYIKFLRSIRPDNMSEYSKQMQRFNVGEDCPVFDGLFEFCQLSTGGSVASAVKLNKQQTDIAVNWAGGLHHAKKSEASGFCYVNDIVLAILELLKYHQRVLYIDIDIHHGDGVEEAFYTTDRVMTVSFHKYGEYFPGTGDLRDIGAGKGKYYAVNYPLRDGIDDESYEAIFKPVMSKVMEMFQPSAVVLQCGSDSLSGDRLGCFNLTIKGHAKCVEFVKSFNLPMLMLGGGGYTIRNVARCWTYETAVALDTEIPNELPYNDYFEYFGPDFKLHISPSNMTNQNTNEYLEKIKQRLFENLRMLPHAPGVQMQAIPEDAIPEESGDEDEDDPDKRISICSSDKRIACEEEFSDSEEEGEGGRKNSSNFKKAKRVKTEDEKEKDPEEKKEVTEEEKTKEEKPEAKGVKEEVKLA

Structures are written as SMILES.

Sequence of HDAC6 human recombinant (Q9UBN7 whole entry): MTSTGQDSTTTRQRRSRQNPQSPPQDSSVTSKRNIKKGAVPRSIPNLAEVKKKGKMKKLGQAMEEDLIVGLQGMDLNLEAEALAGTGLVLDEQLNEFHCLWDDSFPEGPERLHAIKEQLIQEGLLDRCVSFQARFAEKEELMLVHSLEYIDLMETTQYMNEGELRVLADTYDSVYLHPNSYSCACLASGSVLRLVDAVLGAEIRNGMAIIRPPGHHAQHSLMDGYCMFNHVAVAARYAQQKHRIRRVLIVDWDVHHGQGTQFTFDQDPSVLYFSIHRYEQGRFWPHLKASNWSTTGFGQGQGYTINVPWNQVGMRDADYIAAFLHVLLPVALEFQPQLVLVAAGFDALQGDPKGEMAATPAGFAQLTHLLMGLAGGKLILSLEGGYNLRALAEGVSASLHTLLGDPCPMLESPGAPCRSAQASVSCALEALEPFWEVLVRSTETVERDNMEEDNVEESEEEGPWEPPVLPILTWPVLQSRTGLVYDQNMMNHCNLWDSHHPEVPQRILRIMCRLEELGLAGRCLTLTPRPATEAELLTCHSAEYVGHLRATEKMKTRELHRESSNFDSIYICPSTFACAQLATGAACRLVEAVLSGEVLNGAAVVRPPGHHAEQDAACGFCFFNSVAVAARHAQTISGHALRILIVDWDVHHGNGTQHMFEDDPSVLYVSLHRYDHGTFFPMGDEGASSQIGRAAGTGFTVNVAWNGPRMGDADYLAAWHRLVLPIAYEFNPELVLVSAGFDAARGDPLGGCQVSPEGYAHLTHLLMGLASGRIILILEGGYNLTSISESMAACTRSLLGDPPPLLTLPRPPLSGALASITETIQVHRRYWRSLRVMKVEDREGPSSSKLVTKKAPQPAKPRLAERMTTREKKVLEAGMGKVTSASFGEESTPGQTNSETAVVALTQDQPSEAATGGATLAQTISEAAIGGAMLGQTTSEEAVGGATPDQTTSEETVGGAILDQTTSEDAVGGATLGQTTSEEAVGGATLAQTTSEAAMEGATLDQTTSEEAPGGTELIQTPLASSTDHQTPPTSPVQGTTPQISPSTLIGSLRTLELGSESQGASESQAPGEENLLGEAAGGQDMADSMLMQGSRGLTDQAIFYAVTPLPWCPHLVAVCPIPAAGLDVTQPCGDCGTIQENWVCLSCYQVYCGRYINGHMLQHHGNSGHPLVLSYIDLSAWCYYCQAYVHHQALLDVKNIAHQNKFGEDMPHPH

As to `CC1(C)C(=O)N(Cc2ccc(-c3nnc(C(F)F)o3)cn2)C(=O)c2cc(C3CCN(C4CCOC4)CC3)ccc21` (stereo not drawn) [Compound 146, 2-((5-(5-(difluoromethyl)-1,3,4-oxadiazole-2-yl)pyridine-2-yl)methyl)-4,4-dimethyl-7-(1-(tetrahydrofuran-3-yl)piperidine-4-yl)isoquinoline-1,3(2H,4H)-dione], the values for the IC50 at HDAC6 human recombinant and on HDAC1 were 0.058 µM and more than 10 µM, respectively.
As to `CN(C)CCn1c(=O)n(Cc2ccc(-c3nnc(C(F)F)o3)cn2)c(=O)c2ccccc21` [Compound 22, 3-((5-(5-(difluoromethyl)-1,3,4-oxadiazole-2-yl)pyridine-2-yl)methyl)-1-(2-(dimethylamino)ethyl)quinazoline-2,4(1H,3H)-dione], the concentration for half-maximal inhibition (IC50) (in general, the midpoint of a concentration-inhibition curve) at HDAC6 human recombinant is 0.21 µM; at HDAC1 it was more than 10 µM.
With `CC1(C)C(=O)N(Cc2ccc(-c3nnc(C(F)F)o3)cn2)C(=O)c2ccc(N3CCN(CC(=O)N4CCCC4)CC3)cc21` [Compound 33, 2-((5-(5-(difluoromethyl)-1,3,4-oxadiazole-2-yl)pyridine-2-yl)methyl)-4,4-dimethyl-6-(4-(2-oxo-2-(pyrrolidine-1-yl)ethyl)piperazine-1-yl)isoquinoline-1,3(2H,4H)-dione], the IC50 at HDAC6 human recombinant was 0.034 µM; on HDAC1, more than 10 µM.
For `CC1(C)C(=O)N(Cc2ncc(-c3nnc(C(F)F)o3)cn2)C(=O)c2ccccc21` [Compound 12, 2-((5-(5-(difluoromethyl)-1,3,4-oxadiazole-2-yl)pyrimidine-2-yl)methyl)-4,4-dimethylisoquinoline-1,3(2H,4H)-dione], in that order: 0.083 µM and more than 10 µM.
Take `COCCn1c(=O)n(Cc2ccc(-c3nnc(C(F)F)o3)cn2)c(=O)c2ccccc21` [Compound 17, 3-((5-(5-(difluoromethyl)-1,3,4-oxadiazole-2-yl)pyridine-2-yl)methyl)-1-(2-methoxyethyl)quinazoline-2,4(1H,3H)-dione]: the IC50 at HDAC6 human recombinant was 0.165 µM; on HDAC1 it was more than 10 µM.
As to `CC1(C)C(=O)N(Cc2ccc(-c3nnc(C(F)F)o3)cn2)C(=O)c2cc(C3CCN(C4COC4)CC3)ccc21` [Compound 55, 2-((5-(5-(difluoromethyl)-1,3,4-oxadiazole-2-yl)pyridine-2-yl)methyl)-4,4-dimethyl-7-(1-(oxetan-3-yl)piperidine-4-yl)isoquinoline-1,3(2H,4H)-dione], the IC50 is 0.02 µM on HDAC6 human recombinant and more than 10 µM at HDAC1.
For `CC1(C)C(=O)N(Cc2ccc(-c3nnc(C(F)F)o3)cn2)C(=O)c2ccc(-c3cccnc3)cc21` [Compound 104, 2-((5-(5-(difluoromethyl)-1,3,4-oxadiazole-2-yl)pyridine-2-yl)methyl)-4,4-dimethyl-6-(pyridine-3-yl)isoquinoline-1,3(2H,4H)-dione], the IC50 at HDAC6 human recombinant was 0.02 µM; on HDAC1 it was more than 10 µM.
For `CC1(C)C(=O)N(Cc2ccc(-c3nnc(C(F)F)o3)cn2)C(=O)c2c(-c3cccnc3)cccc21` [Compound 85, 2-((5-(5-(difluoromethyl)-1,3,4-oxadiazole-2-yl)pyridine-2-yl)methyl)-4,4-dimethyl-8-(pyridine-3-yl)isoquinoline-1,3(2H,4H)-dione], in that order: 0.05 µM and more than 10 µM.
For `Cn1c(=O)n(Cc2ccc(-c3nnc(C(F)F)o3)cn2)c(=O)c2ccc(-c3cccnc3)cc21` [Compound 100, 3-((5-(5-(difluoromethyl)-1,3,4-oxadiazole-2-yl)pyridine-2-yl)methyl)-1-methyl-7-(pyridine-3-yl)quinazoline-2,4(1H,3H)-dione], in that order: 0.037 µM and more than 10 µM.
Consider `O=c1[nH]c2ccc(F)cc2c(=O)n1Cc1ccc(-c2nnc(C(F)F)o2)cn1` [Compound 67, 3-((5-(5-(difluoromethyl)-1,3,4-oxadiazole-2-yl)pyridine-2-yl)methyl)-6-fluoroquinazoline-2,4(1H,3H)-dione], for which the results for the IC50 on HDAC6 human recombinant and on HDAC1 were 0.062 µM and more than 10 µM, respectively.
`CC1(C)C(=O)N(Cc2ccc(-c3nnc(C(F)F)o3)cn2)C(=O)c2cc(C3=CC[S+]([O-])CC3)ccc21` (stereo not drawn) [Compound 123, 2-((5-(5-(difluoromethyl)-1,3,4-oxadiazole-2-yl)pyridine-2-yl)methyl)-4,4-dimethyl-7-(1-oxydo-3,6-dihydro-2H-thiopyran-4-yl)isoquinoline-1,3(2H,4H)-dione]: the figures for the IC50 on HDAC6 human recombinant and at HDAC1 were 0.017 µM and more than 10 µM, respectively.
With `CC1(C)C(=O)N(Cc2ccc(-c3nnc(C(F)F)o3)cn2)C(=O)c2cc(Br)ccc21` [Compound 51, 7-bromo-2-((5-(5-(difluoromethyl)-1,3,4-oxadiazole-2-yl)pyridine-2-yl)methyl)-4,4-dimethylisoquinoline-1,3(2H,4H)-dione], the IC50 on HDAC6 human recombinant is 0.038 µM; against HDAC1, more than 10 µM.
For `CN1CCN(c2ccc3c(c2)C(C)(C)C(=O)N(Cc2ccc(-c4nnc(C(F)F)o4)cn2)C3=O)CC1` [Compound 29, 2-((5-(5-(difluoromethyl)-1,3,4-oxadiazole-2-yl)pyridine-2-yl)methyl)-4,4-dimethyl-6-(4-methylpiperazine-1-yl)isoquinoline-1,3(2H,4H)-dione], the IC50 on HDAC6 human recombinant was 0.018 µM; against HDAC1, more than 10 µM.
Regarding `CC1(C)C(=O)N(Cc2ccc(-c3nnc(C(F)F)o3)cn2)C(=O)c2ccc(-c3ccco3)cc21` [Compound 74, 2-((5-(5-(difluoromethyl)-1,3,4-oxadiazole-2-yl)pyridine-2-yl)methyl)-6-(furan-2-yl)-4,4-dimethylisoquinoline-1,3(2H,4H)-dione], the IC50 at HDAC6 human recombinant is 0.049 µM; against HDAC1, more than 10 µM.
For `CCCN1CCC(c2ccc3c(c2)C(=O)N(Cc2ccc(-c4nnc(C(F)F)o4)cn2)C(=O)C3(C)C)CC1` [Compound 143, 2-((5-(5-(difluoromethyl)-1,3,4-oxadiazole-2-yl)pyridine-2-yl)methyl)-4,4-dimethyl-7-(1-propylpiperidine-4-yl) isoquinoline-1,3 (2H,4H)-dione], in that order: 0.021 µM and more than 10 µM.
Turning to `Cn1c(=O)n(Cc2ccc(-c3nnc(C(F)F)o3)cn2)c(=O)c2ccc(-c3ccncc3)cc21` [Compound 101, 3-((5-(5-(difluoromethyl)-1,3,4-oxadiazole-2-yl)pyridine-2-yl)methyl)-1-methyl-7-(pyridine-4-yl)quinazoline-2,4(1H,3H)-dione], the IC50 on HDAC6 human recombinant is 0.033 µM; against HDAC1, more than 10 µM.
On to `CN(C)[C@@H]1CCN(c2ccc3c(c2)C(C)(C)C(=O)N(Cc2ccc(-c4nnc(C(F)F)o4)cn2)C3=O)C1` [Compound 32, (R)-2-((5-(5-(difluoromethyl)-1,3,4-oxadiazole-2-yl)pyridine-2-yl)methyl)-6-(3-(dimethylamino)pyrrolidine-1-yl)-4,4-dimethylisoquinoline-1,3(2H,4H)-dione], for which the values for the IC50 on HDAC6 human recombinant and on HDAC1 were 0.025 µM and more than 10 µM, respectively.
In the case of `Cn1c(=O)n(Cc2ccc(-c3nnc(C(F)F)o3)cn2)c(=O)c2cc(Br)ccc21` [Compound 86, 6-bromo-3-((5-(5-(difluoromethyl)-1,3,4-oxadiazole-2-yl)pyridine-2-yl)methyl)-1-methylquinazoline-2,4(1H,3H)-dione], the IC50 on HDAC6 human recombinant was 0.04 µM; on HDAC1, more than 10 µM.
On to `CC(C)(C)OC(=O)N1CCN(c2ccc3c(c2)C(C)(C)C(=O)N(Cc2ccc(-c4nnc(C(F)F)o4)cn2)C3=O)CC12CC2` [Compound 79, tert-butyl 7-(2-((5-(5-(difluoromethyl)-1,3,4-oxadiazole-2-yl)pyridine-2-yl)methyl)-4,4-dimethyl-1,3-dioxo-1,2,3,4-tetrahydroisoquinoline-6-yl)-4,7-diazaspiro[2.5]octane-4-carboxylate], for which the IC50 at HDAC6 human recombinant is 0.113 µM; against HDAC1, more than 10 µM.
For `CCN1CCN(c2ccc3c(c2)C2(CCC2)C(=O)N(Cc2ccc(-c4nnc(C(F)F)o4)cn2)C3=O)CC1` [Compound 117, 2′-((5-(5-(difluoromethyl)-1,3,4-oxadiazole-2-yl)pyridine-2-yl)methyl)-6′-(4-ethylpiperazine-1-yl)-1′H-spiro[cyclobutane-1,4′-isoquinoline]-1′,3′(2′H)-dione], the values for the IC50 on HDAC6 human recombinant and against HDAC1 were 0.022 µM and more than 10 µM, respectively.
For `CC1(C)C(=O)N(Cc2ccc(-c3nnc(C(F)F)o3)cn2)C(=O)c2ccc(Br)cc21` [Compound 23, 6-bromo-2-((5-(5-(difluoromethyl)-1,3,4-oxadiazole-2-yl)pyridine-2-yl)methyl)-4,4-dimethylisoquinoline-1,3(2H,4H)-dione] the same measures were 0.065 µM and more than 10 µM.
As to `O=c1c2ccccc2n(CCN2CCOCC2)c(=O)n1Cc1ccc(-c2nnc(C(F)F)o2)cn1` [Compound 20, 3-((5-(5-(difluoromethyl)-1,3,4-oxadiazole-2-yl)pyridine-2-yl)methyl)-1-(2-morpholinoethyl)quinazoline-2,4(1H,3H)-dione], the IC50 at HDAC6 human recombinant is 0.159 µM; at HDAC1, more than 10 µM.
Take `CC(C)CN1CCN(c2ccc3c(c2)C(C)(C)C(=O)N(Cc2ccc(-c4nnc(C(F)F)o4)cn2)C3=O)CC1` [Compound 149, 2-((5-(5-(difluoromethyl)-1,3,4-oxadiazole-2-yl)pyridine-2-yl)methyl)-6-(4-isobutylpiperazine-1-yl)-4,4-dimethylisoquinoline-1,3(2H,4H)-dione]: the IC50 was 0.095 µM at HDAC6 human recombinant and more than 10 µM against HDAC1.
Consider `CC(C)CN1CCN(c2ccc3c(c2)C(=O)N(Cc2ccc(-c4nnc(C(F)F)o4)cn2)C(=O)C3(C)C)CC1` [Compound 131, 2-((5-(5-(difluoromethyl)-1,3,4-oxadiazole-2-yl)pyridine-2-yl)methyl)-7-(4-isobutylpiperazine-1-yl)-4,4-dimethylisoquinoline-1,3(2H,4H)-dione], for which the values for the IC50 at HDAC6 human recombinant and on HDAC1 were 0.062 µM and more than 10 µM, respectively.
